Earlier results in patent US8404645B2, “Stable formulations of amylin and its analogues” (Novo Nordisk AS, priority 2007, dated 2013).
Where no end group is shown, it is not given here.

settings: treated test animals; provoking marked hyperlactemia followed by hyperglycemia

| Substance | Amylin activity in vivo |
| --- | --- |
| Arg18 Pro25 Pro28-h-amylin | show amylin activity in vivo |
| Arg18 Pro25 Pro 28-des-Lys1-h-amylin | show amylin activity in vivo |
| Pro25 Val26 Pro 28 Pro29-h-amylin | show amylin activity in vivo |
| Pro28-h-amylin (KCNTATCATQRLANFLVHSSNNFGAILPSTNVGSNTY; ends and bridges not checked; cysteine pairing not given here; UniProt P10997 34-70, looked up, variant S28P) [human amylin analog, Pro at position 28] | show amylin activity in vivo |
| des-Lys1-h-amylin | show amylin activity in vivo |
